{"source": "patent US8933117B2", "about": "“Crystals of substituted cycloalkene derivatives” (Daiichi Sankyo Company, Limited, priority 2010, dated 2015)", "key": {"[1]": {"experiment": "Moisture absorption test (hygroscopicity)", "format": "physicochemical", "settings": "25° C.; for Hygroscopicity (in words): measurement humidity 10 to 95% RH; for Hygroscopicity, change in weight: relative humidity 10→80%", "description": "A sample was weighed in a glass sample cup, and the weight thereof was measured under the following conditions.\nMeasuring device: DVS Advantage, manufactured by Surface Measurement System Ltd.\nMeasurement temperature: 25° C., Minimum exposure time: 15 min, Maximum exposure time: 120 min, Step transition condition: within 0.006 wt. %\nThe appearance of the sample at the time of completion of the measurement was confirmed."}, "Solubility test": {"experiment": "Solubility test", "format": "physicochemical", "settings": "aqueous phosphate solution with 150 mM NaCl, pH around 7.5", "description": "150 mg of each of the compounds of Examples 1 and 2 and Comparative Example 1 was dissolved in 5 mL of an aqueous phosphate solution containing sodium chloride (containing 150 mM NaCl and 10 mM […]). After the resulting mixture was stirred for 30 minutes while measuring the pH of the mixture, a 0.5 mL portion of the resulting suspension was taken and filtered through a syringe filter. A 100 μL portion of the obtained filtrate was transferred into a 10-mL volumetric flask and diluted to 10 mL with an aqueous solution of 50% MeCN, whereby a sample solution was prepared. To the suspension, concentrated HCl was added dropwise to adjust the pH thereof to around 7.5.\nMeasurement was performed using HPLC under the following conditions.\nHPLC system: Water's Alliance\nColumn: XTerra MS C18 3.5 μm, Column Size: 4.6×100 mm\nColumn Temp: 40° C., Flow Rate: 1.2 mL/min\nSolvent A: 0.1% phosphoric acid in water, Solvent B: 0.1% phosphoric acid in MeCN"}, "[2]": {"system": "TNF-α production in human monocytic cell line U937 stimulated with endotoxin", "experiment": "Suppressive effect on production of TNF-α in cells stimulated with endotoxin (in vitro)", "format": "cell-based", "settings": "concentration of test compound: 100 nM, LPS 30 ng/ml, 4.5 hours", "description": "The rate of suppression of TNF-α production when human monocytic cell line U937 was stimulated with endotoxin was determined for the compound of the present invention. Specifically, to RPMI-1640 medium containing 10% (volume %) of inactivated newborn bovine serum, 12-O-tetradecanoylphorbol-13-acetate was added to give a final concentration of 30 ng/ml. U937 cells were suspended in the medium and plated into a 96-well culture plate (Sumilon) so that the number of cells per well/volume was 2×10^4/0.1 mL, and the culture plate was then incubated for 3 days at 37° C. in a carbon dioxide incubator with 5% CO2 and 100% humidity. After completion of the incubation, the culture supernatant was removed. […] By using a 384-well half area black plate (Greiner) and an HTRF quantitative determination kit manufactured by Cisbio International, the concentration of TNF-α in the culture supernatant was measured as time-resolved fluorescence by Discovery (Packard). From the measured value in the absence of LPS (X), the measured value in the absence of the compound of the present invention (Y), and the measured value in the presence of the compound of the present invention (Z), the rate of suppression of TNF-α production was obtained according to the following calculation formula [I]. […]"}, "blood TNF-α level": {"system": "blood TNF-α level", "experiment": "Suppressive effect on elevation of blood TNF-α level (in vivo)", "parameters": "species or system Sprague Dawley rats", "settings": "test compound 0.3 mg/kg, femoral vein, 0.5 hours before LPS; rat plasma 2 hours after LPS", "description": "The suppressive effect of the compound of the present invention on the elevation of blood TNF-α level was studied. A test for the elevation of blood TNF-α level was performed in accordance with the method of Parant et al. described in Journal of Leukocyte Biology, Vol. 47, page 164 (1990).\nIn the test, 3 to 4 male Sprague Dawley rats (8 to 9 weeks of age) were used for each group.\nAt 4 hours before the administration of LPS, muramyl dipeptide dissolved in physiological saline (1 mg/mL) was administered to each rat through the tail vein at a dose of 1 mL/kg. At 0.5 hours before the administration of LPS, the rats were anaesthetized with pentobarbital (40 mg/kg), and the compound of the present invention dissolved in a 5% dimethyl acetamide/95% polyethylene glycol 400 solution was administered to each rat through the right femoral vein at a dose of 1 mL/kg. To the control group, a 5% dimethyl acetamide/95% polyethylene glycol 400 solution was administered at a dose of 1 mL/kg. […] The plasma TNF-α level was determined using a TNF-α quantitative determination kit (BioSource International, Inc.). From the blood TNF-α level in the control group (X) and the blood TNF-α level in the group administered with the compound of the present invention (Y), the rate of suppression of TNF-α production was calculated according to the following calculation formula [II]. […]"}, "Solution stability test": {"experiment": "Solution stability test", "settings": "light tester, versus light-shielded control", "quoted_text": "(§1) The above flasks as such and the flasks covered with aluminum foil for light shielding as controls were placed in a light tester at 25° C. After one day, each solution was diluted to 10 mL with 50% MeCN. The concentration of each solution was calculated by performing HPLC under the same conditions as used in the above-described solubility test, and the change in concentration from the control was calculated."}, "[3]": {"settings": "pH 7", "quoted_text": "as §1"}}, "note": "Entries after “also recorded” stand apart in the source; their conditions may differ. Read-outs that look alike come from different tables or passages of the source."}
{"smiles": "CCOC(=O)C1=CC2(CC[C@H]1S(=O)(=O)[N-]c1ccc(F)cc1Cl)O[C@H](CO)[C@@H](CO)O2.[K+]", "note": "[Example 1, Potassium(2-chloro-4-fluorophenyl){[(2R,3R,8R)-7-(ethoxycarbonyl)-2,3-bis(hydroxymethyl)-1,4-dioxaspiro[4.5]deca-6-en-8-yl]sulfonyl}azanide]", "values": [{"measurement": "Hygroscopicity (in words)", "setting": "[1]", "value": "did not show hygroscopicity"}, {"measurement": "Hygroscopicity, change in weight", "setting": "[1]", "value": "<0.1% (relative"}, {"measurement": "Solubility (PBS pH 7.5)", "setting": "Solubility test", "value": 13.8, "unit": "mg/ml"}, {"measurement": "Rate of suppression of TNF-α production", "setting": "[2]", "value": 89, "unit": "%"}, {"measurement": "Rate of suppression of TNF-α production", "setting": "blood TNF-α level", "value": 96, "unit": "%"}, {"measurement": "Solution stability (25° C., 1 day)", "setting": "Solution stability test; PBS pH 6", "value": 99.9, "unit": "%"}]}
{"smiles": "CCOC(=O)C1=CC2(CC[C@H]1S(=O)(=O)Nc1ccc(F)cc1Cl)O[C@H](CO)[C@@H](CO)O2", "note": "(single isomer, unassigned) [Comparative Example, reference compound]", "values": [{"measurement": "Hygroscopicity (in words)", "setting": "[1]", "value": "showed high hygroscopicity at every measurement humidity; also recorded: With hygroscopicity"}, {"measurement": "Hygroscopicity, change in weight", "setting": "[1]", "value": "2.6% (relative"}, {"measurement": "Solubility (PBS pH 7.5)", "setting": "Solubility test", "value": "low solubility"}, {"measurement": "Solution stability (25° C., 1 day)", "setting": "Solution stability test; McIlvaine buffer pH 8", "value": 99.4, "unit": "%"}]}
{"smiles": "CCOC(=O)C1=CC2(CC[C@H]1S(=O)(=O)[N-]c1ccc(F)cc1Br)O[C@H](CO)[C@@H](CO)O2.[K+]", "note": "[Example 2, Potassium(2-bromo-4-fluorophenyl){[(2R,3R,8R)-7-(ethoxycarbonyl)-2,3-bis(hydroxymethyl)-1,4-dioxaspiro[4.5]deca-6-en-8-yl]sulfonyl}azanide]", "values": [{"measurement": "Hygroscopicity (in words)", "setting": "[1]", "value": "did not show hygroscopicity"}, {"measurement": "Hygroscopicity, change in weight", "setting": "[1]", "value": "<0.1% (relative"}, {"measurement": "Solubility (PBS pH 7.5)", "setting": "Solubility test", "value": 9.6, "unit": "mg/ml"}, {"measurement": "Rate of suppression of TNF-α production", "setting": "blood TNF-α level", "value": 81, "unit": "%"}, {"measurement": "Solution stability (25° C., 1 day)", "setting": "[3]", "value": 99.4, "unit": "%"}]}
